#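 Protocol summary: plate cells (96-well), add compound at 5 concentrations, incubate 48 h, interpolate endpoints linearly. Here, GI50 denotes the concentration required for 50% inhibition of growth. TGI marks complete inhibition of growth.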
# Key:
# Test in all cases: NCI-60 cell line screen, 48 h
# [1] = tested on: UACC-257 melanoma
# [2] = tested on: HL-60(TB) leukemia
# [3] = tested on: HCT-116 colon
# [4] = tested on: EKVX NSCLC
# [5] = tested on: HOP-92 NSCLC
# [6] = tested on: 786-0 renal
# [7] = tested on: SK-MEL-5 melanoma
# [8] = tested on: ACHN renal
# [9] = tested on: COLO 205 colon
# [10] = tested on: CAKI-1 renal
Compound,GI50 [1],TGI [1],GI50 [2],TGI [2],GI50 [3],TGI [3],GI50 [4],TGI [4],GI50 [5],TGI [5],GI50 [6],TGI [6],GI50 [7],TGI [7],GI50 [8],TGI [8],TGI [9],TGI [10],GI50 [9],GI50 [10]
CCC1=C[C@H]2CN(CCc3c([nH]c4ccccc34)[C@@](C(=O)OC)(c3cc4c(cc3OC)N(C)[C@H]3[C@@](O)(C(=O)OC)[C@H](OC(C)=O)[C@]5(CC)[C@@H]6C[C@@H]6CN6CC[C@]43[C@@H]65)C2)C1,3.42 µM,7.33 µM,0.0265 µM,0.14 µM,0.0185 µM,2.61 µM,0.0966 µM,> 25 µM,0.109 µM,1.76 µM,0.0315 µM,3.07 µM,0.0143 µM,0.586 µM,0.144 µM,6.02 µM,,,,
COC(=O)[C@]1(C)CCC[C@]2(C)C3CC4OOC3(C=C4C(C)C)CCC21 (stereo partly drawn),,32 µM,,4.15 µM,,29 µM,,30.4 µM,,,,17.6 µM,,29.6 µM,,31.2 µM,39.4 µM,62.3 µM,,
COc1ccc2c(c1)N(CCO)C1=C(C(=O)OC1)C2c1cccc(Br)c1 (stereo not drawn),0.034 µM,40.7 µM,0.0671 µM,0.601 µM,0.05 µM,2.88 µM,0.694 µM,> 100 µM,,,0.12 µM,41.4 µM,0.0407 µM,0.585 µM,0.0824 µM,> 100 µM,0.464 µM,35.6 µM,0.103 µM,0.0395 µM
Cc1ccc(S(=O)(=O)N2C/C(=C\c3cc(F)cc(F)c3)C(=O)/C(=C/c3cc(F)cc(F)c3)C2)cc1,0.583 µM,2.33 µM,0.243 µM,1.05 µM,0.162 µM,0.513 µM,,,1.1 µM,3.17 µM,0.492 µM,1.66 µM,0.272 µM,0.908 µM,0.232 µM,0.573 µM,2.33 µM,2.4 µM,0.653 µM,0.367 µM
CCCN1CN(C(C(=O)N[C@@H]2C(=O)N3C(C(=O)O)=C(C)CSC23)c2ccccc2)CSC1=S (stereo partly drawn),,> 100 µM,,> 100 µM,,> 100 µM,,> 100 µM,,> 100 µM,,> 100 µM,,> 100 µM,,> 100 µM,> 100 µM,,,
C/C(CC(=O)Nc1ccc([N+](=O)[O-])cc1)=N/N=C(N)N,,> 100 µM,,> 100 µM,,> 100 µM,,> 100 µM,,> 100 µM,,> 100 µM,,> 100 µM,,> 100 µM,> 100 µM,,,
O=C(Nc1cccc(-n2cc(-c3ccncc3)c(-c3ccc(O)c(Cl)c3)n2)c1)Nc1ccc(Cl)c(C(F)(F)F)c1,1.98 µM,4.39 µM,2.55 µM,6.38 µM,2.4 µM,8.21 µM,,,0.455 µM,2.93 µM,2.08 µM,8.18 µM,1.66 µM,3.07 µM,2.64 µM,10.9 µM,3.32 µM,7.33 µM,1.77 µM,2.02 µM
O=c1nc2[nH]nc(-c3ccccc3)c2n[nH]1,,> 100 µM,,> 100 µM,,> 100 µM,,> 100 µM,,,,52 µM,,,,> 100 µM,> 100 µM,> 100 µM,,
COc1cc2c(cc1C)NC(=O)/C2=C/c1c(C)nc2sc(C)cn12,62.3 µM,> 100 µM,,,53.5 µM,> 100 µM,49.2 µM,> 100 µM,22.1 µM,> 100 µM,> 100 µM,> 100 µM,24.4 µM,64.7 µM,> 100 µM,> 100 µM,> 100 µM,> 100 µM,73.6 µM,52 µM
Cn1c2ccccc2c(=S)c2cc(NC(=O)CCCCC(=O)Nc3ccc4c(c3)c(=S)c3ccccc3n4C)ccc21,,> 100 µM,,,,> 100 µM,,> 100 µM,,> 100 µM,,> 100 µM,,> 100 µM,,> 100 µM,> 100 µM,> 100 µM,,
COc1ccc2c(c1)CC[C@@H]1[C@@H]2CC[C@]2(C)c3c(cc(C(=O)c4ccccc4)c4sccc34)C[C@@H]12,> 100 µM,> 100 µM,6.73 µM,> 100 µM,> 100 µM,> 100 µM,> 100 µM,> 100 µM,,,> 100 µM,> 100 µM,> 100 µM,> 100 µM,> 100 µM,> 100 µM,> 100 µM,> 100 µM,> 100 µM,> 100 µM
COc1ccc(/C=C/C(=O)c2ccc(NC(=O)CSc3nnc(-c4cc(OC)c(OC)c(OC)c4)o3)cc2)cc1,2.16 µM,4.69 µM,,,,,,,1.93 µM,4.23 µM,1.7 µM,3.36 µM,2.14 µM,5.24 µM,1.72 µM,3.22 µM,3.84 µM,,1.94 µM,
C/C(CN1C(=O)c2ccccc2C1=O)=N\NS(C)(=O)=O,,> 100 µM,,> 100 µM,,> 100 µM,,> 100 µM,,,,> 100 µM,,> 100 µM,,> 100 µM,> 100 µM,> 100 µM,,
O=C(Nc1cc(Cl)cc(Cl)c1)c1ccc(NC2=C(Cl)C(=O)N(Cc3ccccc3)C2=O)cc1,11.5 µM,27.1 µM,1.55 µM,4.43 µM,0.743 µM,3.76 µM,13.9 µM,28.7 µM,,,2.87 µM,8.74 µM,1.57 µM,3.19 µM,1.82 µM,7.77 µM,> 100 µM,2.98 µM,28.6 µM,0.799 µM
Cn1cc(C2=C(c3cccc(NCC(O)CO)c3)C(=O)NC2=O)c2cc(Cl)ccc21 (stereo not drawn),5.51 µM,15.4 µM,6.9 µM,17.1 µM,2.4 µM,> 25 µM,,,8.16 µM,14.1 µM,4.31 µM,16.5 µM,3.32 µM,7.14 µM,3.53 µM,> 19.6 µM,6.17 µM,13.2 µM,2.74 µM,2.56 µM
O=C1CSc2ccncc2N1,,> 100 µM,,> 100 µM,,> 100 µM,,> 100 µM,,,,> 100 µM,,> 100 µM,,> 100 µM,> 100 µM,> 100 µM,,

Compound,GI50 [1],TGI [1],GI50 [2],TGI [2],GI50 [3],TGI [3],GI50 [4],TGI [4],GI50 [5],TGI [5],GI50 [6],TGI [6],GI50 [7],TGI [7],GI50 [8],TGI [8],TGI [9],TGI [10],GI50 [9],GI50 [10]
N=C(N)c1ccc(-c2ccc(-c3ccco3)o2)cc1F,1.59 µM,3.08 µM,2.19 µM,4.29 µM,1.69 µM,3.49 µM,,,0.968 µM,2.98 µM,1.74 µM,4.08 µM,1.64 µM,3.04 µM,1.84 µM,3.81 µM,3.62 µM,4.64 µM,1.8 µM,1.78 µM
COc1ccc(-c2oncc2-c2cc(OC)c3c(c2)OCO3)cc1,> 20 µM,> 100 µM,2.53 µM,> 26.5 µM,3.28 µM,> 58.3 µM,,,2.08 µM,28.6 µM,7.67 µM,> 100 µM,2.84 µM,14.1 µM,4.81 µM,> 100 µM,10.4 µM,31.2 µM,2.8 µM,2.16 µM
O=C1CC23CC(=O)CC2(C1)c1ccccc1C3=O (stereo not drawn),,> 100 µM,,> 100 µM,,> 100 µM,,> 100 µM,,,,> 100 µM,,,,> 100 µM,> 100 µM,> 100 µM,,
FC(F)(F)c1ccccc1C=NC12CC3CC(CC(C3)C1)C2,,> 100 µM,,> 100 µM,,> 100 µM,,> 100 µM,,,,> 100 µM,,> 100 µM,,> 100 µM,> 100 µM,> 100 µM,,
COC(=O)C1CCc2nnc(-c3cccnc3)n21 (stereo not drawn),,> 100 µM,,> 100 µM,,> 100 µM,,> 100 µM,,,,> 100 µM,,> 100 µM,,> 100 µM,> 100 µM,> 100 µM,,
COc1ccc2c(c1)c(=O)oc1cc(OC/C(=N\O)c3ccc(F)cc3)ccc12,25.4 µM,91.1 µM,,,14.2 µM,28 µM,30.2 µM,> 100 µM,24.9 µM,72.2 µM,13.6 µM,33.7 µM,16.6 µM,30.8 µM,21 µM,55.4 µM,34.6 µM,47.8 µM,15.6 µM,19.9 µM
NNc1nc(-c2ccccn2)nc2sc3c(c12)CCCCCC3,6.61 µM,77.4 µM,4.46 µM,36.3 µM,3.53 µM,> 100 µM,,,3.54 µM,48.6 µM,5.65 µM,25.2 µM,3.16 µM,24.1 µM,4.87 µM,63.9 µM,> 100 µM,25.6 µM,5.07 µM,0.575 µM
O=C(CN/C=C\C(=O)c1cc(Cl)ccc1Cl)c1ccccc1,24.7 µM,61.9 µM,73.4 µM,> 100 µM,21.2 µM,43.1 µM,31.1 µM,99.2 µM,,,36.1 µM,> 100 µM,18.1 µM,33.7 µM,> 100 µM,> 100 µM,> 100 µM,66.2 µM,34.9 µM,26.6 µM
COC(C(=O)[C@@H](O)[C@@H](C)O)[C@@H]1Cc2cc3cc(O[C@H]4C[C@@H](O[C@H]5C[C@@H](O)[C@H](O)C(C)O5)[C@H](O)C(C)O4)c(C)c(O)c3c(O)c2C(=O)[C@H]1O[C@H]1C[C@@H](O[C@H]2C[C@@H](O[C@H]3C[C@@H](O)[C@@H](O)C(C)O3)[C@@H](O)C(C)O2)[C@H](O)C(C)O1 (stereo partly drawn),0.295 µM,2.04 µM,6.61 µM,> 32.5 µM,0.275 µM,> 32.5 µM,0.78 µM,> 32.5 µM,0.119 µM,2.03 µM,0.305 µM,> 32.5 µM,,,0.485 µM,> 32.5 µM,,> 32.5 µM,,5.78 µM
O=S(=O)(c1ccccc1)C1CN(Cc2ccccc2)CCN(Cc2ccccc2)C1,,> 100 µM,,34.4 µM,,> 100 µM,,> 100 µM,,,,> 100 µM,,59.3 µM,,> 100 µM,> 100 µM,98.9 µM,,
CC(=O)/C=C/c1ccc(N(C)Cc2ccc(C(C)(C)C)cc2)cc1,143 µM,335 µM,69.1 µM,277 µM,80.6 µM,290 µM,84.4 µM,392 µM,129 µM,267 µM,155 µM,338 µM,55.1 µM,184 µM,137 µM,271 µM,275 µM,,95.1 µM,
CCOC(=O)C1=C(N)Oc2cc(OC)ccc2C1c1ccc(F)c(F)c1 (stereo not drawn),11.5 µM,24 µM,0.404 µM,4.8 µM,1.25 µM,16.1 µM,3.67 µM,17.9 µM,3.54 µM,19.4 µM,3.45 µM,16.8 µM,1.68 µM,12.6 µM,5.74 µM,19.8 µM,8.97 µM,,1.05 µM,
COc1ccc(/C=C2\CCCC3=C2N=C2SC=NN2C3c2ccc(OC)c(OC)c2)cc1OC (stereo not drawn),10.5 µM,> 100 µM,22.2 µM,78 µM,4.79 µM,32.5 µM,,,11.6 µM,58.9 µM,25.3 µM,> 100 µM,16.4 µM,> 100 µM,7.71 µM,> 100 µM,> 100 µM,> 100 µM,7.58 µM,7.43 µM
O=C1[C@H](c2ccccc2)C2c3ccccc3CCN12 (stereo partly drawn),> 100 µM,> 100 µM,> 100 µM,> 100 µM,> 100 µM,> 100 µM,> 100 µM,> 100 µM,,,> 100 µM,> 100 µM,> 100 µM,> 100 µM,> 100 µM,> 100 µM,> 100 µM,> 100 µM,> 100 µM,> 100 µM
[O-][N+]1=C(c2ccccc2)COc2ccccc21,,> 100 µM,,> 100 µM,,> 100 µM,,,,> 100 µM,,> 100 µM,,> 100 µM,,> 100 µM,> 100 µM,> 100 µM,,
